Assay results published in ChEMBL document CHEMBL1157259, “Cytotoxic and other compounds from Didymochlaena truncatula from the Madagascar rain forest” (J Nat Prod, 2006).
Converted amounts (≈) assume the structure as drawn.

The compounds below were run on A2780 (assay: Cytotoxicity against human A2780 cells by clonogenic assay).
Format: functional, cell-based

In order of rising IC50:
1. CC[C@@]1(O)C(=O)OCc2c1cc1n(c2=O)Cc2cc3c(OC)cccc3nc2-1  0.02 µg/mL (≈ 0.0529 µM)
2. CC[C@@]1(O)C(=O)OCc2c1cc1n(c2=O)Cc2cc3ccccc3nc2-1 [CAMPTOTHECIN]  0.07 µg/mL (≈ 0.201 µM)
3. COc1cc(O)cc(/C=C/c2ccccc2)c1 [PINOSYLVIN METHYL ETHER]  10 µg/mL (≈ 44.2 µM)
